Earlier results as cited in patent US6855835B2, “Allomorph of isomer Z hydrochloride of alkylaminofurane derivative” (Pharmexcel SRL, priority 2000, dated 2005).

Tests used:
[1] = form 2 compared with form 1; quoted from prior patent (6)
histamine H2-receptors = conditions: Z isomer compared with E isomer; suggested by authors (10, 11)
Chain of histamine H2-receptors (P25021 whole entry): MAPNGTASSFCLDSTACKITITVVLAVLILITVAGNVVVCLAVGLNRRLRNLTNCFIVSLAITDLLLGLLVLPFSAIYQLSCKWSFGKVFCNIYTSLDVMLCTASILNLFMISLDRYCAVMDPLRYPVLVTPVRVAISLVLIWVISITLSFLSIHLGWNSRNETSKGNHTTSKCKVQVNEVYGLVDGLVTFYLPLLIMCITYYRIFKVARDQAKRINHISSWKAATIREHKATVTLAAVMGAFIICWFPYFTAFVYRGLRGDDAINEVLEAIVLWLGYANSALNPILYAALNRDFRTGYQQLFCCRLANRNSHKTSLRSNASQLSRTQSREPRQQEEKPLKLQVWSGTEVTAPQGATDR

CNC(=C[N+](=O)[O-])NCCSCc1ccc(CN(C)C)o1.Cl (racemic) [form 2, N-[2-[[[5-(dimethylamino)methyl-2-furanyl]methyl]thio]ethyl]-N′-methyl-2-nitro-1,1-ethenediamine hydrochloride]
hygroscopicity [1]: less hygroscopic than form 1

CN/C(=C/[N+](=O)[O-])NCCSCc1ccc(CN(C)C)o1 (single isomer, unassigned) [Z, (N-[2-[[[5-(dimethylamino)methyl-2-furanyl]methyl]thio]ethyl]-N′-methyl-2-nitro-1,1-ethenediamine)]
affinity for histamine H2-receptors (histamine H2-receptors): greater configurational affinity
